From the supplement of paper PMC4862054

What was measured:
MDA-MB-453 = experiment: normalised viability (% of control), CellTiter-Blue; higher = more viable cells (about 100 = DMSO control); conditions: incubation time: 72 h
Description: (§1)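 DSRT, CellTiter-Blue viability, 72 h incubation. Signal is normalised to DMSO and benzethonium chloride controls. Value is the normalised response at dose 9.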

DU-4475 = experiment: as above; conditions: incubation time: 72 h
Description: as §1

CAL-51 [1] = experiment: as above; conditions: incubation time: 72 h
Description: as §1

CAL-85-1 = experiment: as above; conditions: incubation time: 72 h
Description: as §1

CAL-148 = experiment: as above; conditions: incubation time: 72 h
Description: as §1

HDQ-P1 = experiment: as above; conditions: incubation time: 72 h
Description: as §1

BT-474 [2] = conditions: 72 h
Procedure, shortened: (§2)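 The reported EC50 was fitted from percent-inhibition dose-response curves and censored at the highest concentration. Breast cancer cell lines (20 µl suspension) were added to 384-well plates containing compound in 5 µl medium and incubated 72 h, and viability was read with 2.5 µl CellTiter-Blue over 2 h at 37 °C at 560/590 nm. Each plate was normalised to vehicle and a positive kill control and checked by Z'-factor, and rows with zero drug sensitivity score were dropped.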

Hs578T = conditions: 72 h
Procedure, shortened: as §2

HCC1937 = conditions: 72 h
Procedure, shortened: as §2

BT-549 [3] = conditions: 72 h
Procedure, shortened: (§3)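 EC50 was fitted from dose-response curves and censored at the highest concentration tested. To build those curves, breast cancer cell lines (20 µl suspension) were seeded into 384-well plates containing compound at 5 concentrations in 10-fold steps over a compound-specific 10,000-fold range and incubated for 72 h. Readouts were CellTox Green fluorescence (485/520 nm) for cell death and then CellTiter-Glo luminescence for viability, with each plate normalised to 0.1 % DMSO and a positive kill control.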

BT-474 [4] = conditions: 72 h; remark: listed apart in the source
Procedure, shortened: as §3

MDA-MB-231 = conditions: 72 h
Procedure, shortened: as §2

HCC1143 = conditions: 72 h
Procedure, shortened: as §2

MDA-MB-468 = conditions: 72 h
Procedure, shortened: as §2

BT-549 [5] = conditions: 72 h; remark: listed apart in the source
Procedure, shortened: as §2

SK-BR-3 = conditions: 72 h
Procedure, shortened: as §2

MDA-MB-436 [6] = conditions: 72 h
Procedure, shortened: as §2

MFM-223 [7] = conditions: 72 h
Procedure, shortened: as §2

CAL-120 [8] = conditions: 72 h
Procedure, shortened: as §2

CAL-51 [9] = conditions: 72 h
Procedure, shortened: as §3

MCF-10A = conditions: 72 h
Procedure, shortened: as §3

MDA-MB-436 [10] = conditions: 72 h; remark: listed apart in the source
Procedure, shortened: as §3

MFM-223 [11] = conditions: 72 h; remark: listed apart in the source
Procedure, shortened: as §3

CAL-120 [12] = conditions: 72 h; remark: listed apart in the source
Procedure, shortened: as §3

`O=C(Nc1cccnc1)N1CCC(Cc2cccc(Oc3ccc(C(F)(F)F)cn3)c2)CC1` [PF-3845] (10000 nM) was tested, and the normalised viability (MDA-MB-453) was 38.4%, the normalised viability (DU-4475) was 108% and the normalised viability (CAL-51 [1]) was 65.5%. For the same compound, the normalised viability (CAL-85-1) was 93.4%, the normalised viability (CAL-148) was 98.2% and the normalised viability (HDQ-P1) was 128%.

`Cc1[nH]c2ccccc2c1CCNCc1ccc(/C=C/C(=O)NO)cc1` [Panobinostat] (1000 nM) gave a normalised viability (MDA-MB-453) of 1.09%, a normalised viability (DU-4475) of 4.66% and a normalised viability (CAL-51 [1]) of 1.29%. The normalised viability (CAL-85-1) was 4.25%, the normalised viability (CAL-148) was 0.37% and the normalised viability (HDQ-P1) was 15%.

With `COCC1(CO)C(=O)C2CCN1CC2` (stereo unspecified) [Prima-1 Met] the “EC50, CellTiter-Blue viability” value (BT-474 [2]) was 4.53 µM, the “EC50, CellTiter-Blue viability” value (Hs578T) was over 10 µM and the “EC50, CellTiter-Blue viability” value (HCC1937) was 0.476 µM. The “EC50, CellTiter-Glo” value (BT-549 [3]) was 2.9 µM.

`COCC1(CO)C(=O)C2CCN1CC2` (stereo unspecified) [Prima-1 Met] (10000 nM) was tested, and the normalised viability (MDA-MB-453) was 89.4%, the normalised viability (DU-4475) was 125% and the normalised viability (CAL-51 [1]) was 99.7%. For the same compound, the normalised viability (CAL-85-1) was 98.3%, the normalised viability (CAL-148) was 80.7% and the normalised viability (HDQ-P1) was 103%.

For `CNC(=O)c1ccc(N2C(=S)N(c3ccc(C#N)c(C(F)(F)F)c3)C(=O)C23CCC3)cc1F` [RD162], the “EC50, CellTiter-Glo” value (BT-474 [4]) was over 10 µM.

Work on `CNC(=O)c1cc(Oc2ccc(NC(=O)Nc3ccc(Cl)c(C(F)(F)F)c3)c(F)c2)ccn1` [Regorafenib] (10000 nM) yielded a normalised viability (MDA-MB-453) of 22%, a normalised viability (DU-4475) of 39.3% and a normalised viability (CAL-51 [1]) of 48.2%. It also gave a normalised viability (CAL-85-1) of 76.7%, a normalised viability (CAL-148) of 81.7% and a normalised viability (HDQ-P1) of 92.9%.

With `c1ccc2c(CCNc3ccc(Nc4ccncc4)cc3)c[nH]c2c1` [Serdemetan] (10000 nM) the normalised viability (MDA-MB-453) was 39.4%, the normalised viability (DU-4475) was -0.82% and the normalised viability (CAL-51 [1]) was 57%. It also gave a normalised viability (CAL-85-1) of 55.1%, a normalised viability (CAL-148) of 55.8% and a normalised viability (HDQ-P1) of 56.6%.

In the case of `S=P(N1CC1)(N1CC1)N1CC1` [Thio-TEPA], the “EC50, CellTiter-Blue viability” value (MDA-MB-231) is reported as 12 µM and the “EC50, CellTiter-Glo” value (BT-549 [3]) is reported as 8.21 µM.

`CN(C)CCOc1ccc(/C(=C(/CCCl)c2ccccc2)c2ccccc2)cc1` [Toremifene] (10000 nM) showed a normalised viability (MDA-MB-453) of 26.5%, a normalised viability (DU-4475) of 94.5% and a normalised viability (CAL-51 [1]) of 105%. The normalised viability (CAL-85-1) was 83.6%, the normalised viability (CAL-148) was 104% and the normalised viability (HDQ-P1) was 108%.

For `CC(C)C[C@@H](C(=O)N[C@H](C(=O)OC1CCCC1)c1ccccc1)[C@H](O)C(=O)NO` [Tosedostat] (10000 nM), the normalised viability (MDA-MB-453) was 18.8%, the normalised viability (DU-4475) was 35.2% and the normalised viability (CAL-51 [1]) was 33.6%. The normalised viability (CAL-85-1) was 49.5%, the normalised viability (CAL-148) was 23.2% and the normalised viability (HDQ-P1) was 76.5%.

In the case of `COc1cc2/c(=N/c3ccc(Br)cc3F)nc[nH]c2cc1OCC1CCN(C)CC1` [Vandetanib], the “EC50, CellTiter-Blue viability” value (HCC1143) is reported as over 10 µM, the “EC50, CellTiter-Blue viability” value (BT-474 [2]) is reported as 2.29 µM and the “EC50, CellTiter-Blue viability” value (MDA-MB-468) is reported as 3.33 µM. For the same compound, the “EC50, CellTiter-Blue viability” value (BT-549 [5]) was 3.75 µM, the “EC50, CellTiter-Blue viability” value (Hs578T) was 2.06 µM and the “EC50, CellTiter-Blue viability” value (SK-BR-3) was 4.33 µM. The “EC50, CellTiter-Blue viability” value (MDA-MB-436 [6]) was 0.138 µM, the “EC50, CellTiter-Blue viability” value (MFM-223 [7]) was 0.926 µM and the “EC50, CellTiter-Blue viability” value (CAL-120 [8]) was 5.26 µM. For the same compound, the “EC50, CellTiter-Blue viability” value (MDA-MB-231) was 2.48 µM, the “EC50, CellTiter-Glo” value (BT-474 [4]) was 0.11 µM and the “EC50, CellTiter-Glo” value (CAL-51 [9]) was over 1 µM. For the same compound, the “EC50, CellTiter-Glo” value (MCF-10A) was 0.15 µM, the “EC50, CellTiter-Glo” value (MDA-MB-436 [10]) was over 1 µM and the “EC50, CellTiter-Glo” value (MFM-223 [11]) was 0.37 µM. The “EC50, CellTiter-Glo” value (CAL-120 [12]) was over 1 µM.

`COCC[n+]1c2c(n(Cc3cnccn3)c1C)C(=O)c1ccccc1C2=O` [YM155] (10000 nM) gave a normalised viability (MDA-MB-453) of 2%, a normalised viability (DU-4475) of 0.83% and a normalised viability (CAL-51 [1]) of 1.83%. The normalised viability (CAL-85-1) was 2.71%, the normalised viability (CAL-148) was 2.13% and the normalised viability (HDQ-P1) was 0.66%.
